The values below come from US9340600B2 (Indiana University Research and Technology Corporation, priority 2012, dated 2016).

A word on the pEC50: it is −log10 of the EC50, conventionally taken in molar units. High values mean a small EC50, low ones a large EC50.

pEC50: −log10 of the molar value. *1 amine or outer side, *2 acyl side, *3 side chain or, on linkers, in order; H or OH if unused. Where a SMILES comes first, the peptide text is derived from it. Side-chain parts run from the residue outwards. [ ]: non-standard residue; d: D form. The star is where a group is joined. γGlu = O=C(O)[C@H](CCC(=O)[*:2])N[*:1]; Palmitoyl = CCCCCCCCCCCCCCCC(=O)*; Aib = CC(C)(N)C(=O)O

Assay type in all cases: cell-based
The target in one assay is T1, glucagon receptor (Homo sapiens, UniProt P47871).
T1 construct: expressed in transfected cells; host or cells: HEK293
Kind of assay: cAMP induction, firefly luciferase-based reporter assay in HEK293 cells co-transfected with glucagon receptor. Particulars: EC50 at Glucagon Receptor. The text has this: (§1) This example describes an exemplary method of testing the biological activity of the peptides of the present disclosures, which method involves assaying cAMP synthesis.

For another assay, the target named is T2, GLP-1 receptor (Homo sapiens, UniProt P43220).
T2 construct: expressed in transfected cells; host or cells: HEK293
Description: cAMP induction, firefly luciferase-based reporter assay in HEK293 cells co-transfected with GLP-1 receptor. The note with it: EC50 at GLP-1 Receptor.
Excerpt: as §1
(A reporter such as luciferase makes a cellular process visible.)

In a further assay the target is T3, GIP receptor (Homo sapiens, UniProt P48546).
T3 construct: expressed in transfected cells; host or cells: HEK293
T3 sequence (P48546 22-466): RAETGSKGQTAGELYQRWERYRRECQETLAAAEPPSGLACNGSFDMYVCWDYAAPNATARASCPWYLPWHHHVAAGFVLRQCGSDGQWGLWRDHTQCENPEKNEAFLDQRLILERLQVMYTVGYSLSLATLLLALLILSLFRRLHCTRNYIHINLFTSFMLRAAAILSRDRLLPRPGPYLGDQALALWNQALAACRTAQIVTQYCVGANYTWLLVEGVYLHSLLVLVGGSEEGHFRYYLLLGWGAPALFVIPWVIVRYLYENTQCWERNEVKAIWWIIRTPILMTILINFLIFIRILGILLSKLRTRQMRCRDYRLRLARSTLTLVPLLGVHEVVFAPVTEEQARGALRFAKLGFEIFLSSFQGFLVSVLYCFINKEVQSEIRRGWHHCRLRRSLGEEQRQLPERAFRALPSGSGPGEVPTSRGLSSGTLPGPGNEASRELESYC
Kind of assay: cAMP induction, firefly luciferase-based reporter assay in HEK293 cells co-transfected with GIP receptor. The note with it: EC50 at GIP Receptor.
Excerpt: as §1

Where [1] appears, read: Table 2, analogs of SEQ ID NO: 18 varying at positions 16-21.
Where [2] appears, read: Table 5, analogs of SEQ ID NO: 10.

T1 sequence (P47871 26-477): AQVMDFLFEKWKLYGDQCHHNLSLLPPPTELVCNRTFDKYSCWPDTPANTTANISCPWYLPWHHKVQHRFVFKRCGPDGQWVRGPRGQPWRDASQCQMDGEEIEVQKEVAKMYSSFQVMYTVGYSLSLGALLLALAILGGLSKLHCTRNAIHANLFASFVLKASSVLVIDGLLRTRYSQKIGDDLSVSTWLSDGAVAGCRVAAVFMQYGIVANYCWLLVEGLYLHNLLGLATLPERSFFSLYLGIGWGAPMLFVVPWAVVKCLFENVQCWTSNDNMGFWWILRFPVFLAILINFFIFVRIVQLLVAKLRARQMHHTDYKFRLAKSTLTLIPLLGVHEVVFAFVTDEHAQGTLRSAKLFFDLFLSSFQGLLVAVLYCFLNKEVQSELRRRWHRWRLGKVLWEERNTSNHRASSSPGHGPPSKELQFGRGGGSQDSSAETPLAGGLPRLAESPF
T2 sequence (P43220 24-463): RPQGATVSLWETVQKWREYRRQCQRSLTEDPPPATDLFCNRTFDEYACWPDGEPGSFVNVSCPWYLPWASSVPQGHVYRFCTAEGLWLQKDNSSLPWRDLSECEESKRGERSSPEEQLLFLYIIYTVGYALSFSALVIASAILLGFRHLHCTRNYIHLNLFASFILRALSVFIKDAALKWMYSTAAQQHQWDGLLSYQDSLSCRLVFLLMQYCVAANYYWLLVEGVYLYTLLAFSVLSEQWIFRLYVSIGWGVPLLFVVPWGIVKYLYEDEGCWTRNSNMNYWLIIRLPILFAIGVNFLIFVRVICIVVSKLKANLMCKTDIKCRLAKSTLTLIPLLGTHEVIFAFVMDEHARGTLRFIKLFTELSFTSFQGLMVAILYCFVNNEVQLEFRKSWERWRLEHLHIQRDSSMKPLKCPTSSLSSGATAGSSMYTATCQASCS

Consider `CCCCCCCCCCCCCCCC(=O)N[C@@H](CCC(=O)NCCCC[C@H](NC(=O)[C@H](CC(=O)O)NC(=O)[C@H](CO)NC(=O)[C@@H](NC(=O)[C@H](Cc1ccccc1)NC(=O)[C@@H](NC(=O)CNC(=O)[C@H](CCC(N)=O)NC(=O)C(C)(C)NC(=O)[C@@H](N)Cc1c[nH]cn1)[C@@H](C)O)[C@@H](C)O)C(=O)N[C@@H](CO)C(=O)N[C@@H](CCCCN)C(=O)N[C@@H](Cc1ccc(O)cc1)C(=O)N[C@@H](CC(C)C)C(=O)N[C@@H](CC(=O)O)C(=O)N[C@@H](CCCCN)C(=O)N[C@@H](Cc1c[nH]cn1)C(=O)N[C@@H](C)C(=O)N[C@@H](C)C(=O)NC(C)(C)C(=O)N[C@@H](CCC(=O)O)C(=O)N[C@@H](Cc1ccccc1)C(=O)N[C@H](C(=O)N[C@@H](CCC(N)=O)C(=O)N[C@@H](Cc1c[nH]c2ccccc12)C(=O)N[C@@H](CC(C)C)C(=O)N[C@@H](CC(C)C)C(=O)N[C@@H](CC(=O)O)C(=O)NCC(=O)NCC(=O)N1CCC[C@H]1C(=O)N[C@@H](CO)C(=O)N[C@@H](CO)C(=O)NCC(=O)N[C@@H](C)C(=O)N1CCC[C@H]1C(=O)N1CCC[C@H]1C(=O)N1CCC[C@H]1C(=O)N[C@@H](CO)C(N)=O)C(C)C)C(=O)O` [compound 28] (H-H[Aib]QGTFTSDK([γGlu-Palmitoyl])SKYLDKHAA[Aib]EFVQWLLDGGPSSGAPPPS-NH2; N-terminus assumed), for which the results for the pEC50 at glucagon receptor (setting [1]), at GLP-1 receptor (setting [1]) and on GIP receptor (setting [1]) were 11.22, 11.70 and 12.00, respectively.
`CCCCCCCCCCCCCCCC(=O)N[C@@H](CCC(=O)NCCCC[C@H](NC(=O)[C@H](CC(=O)O)NC(=O)[C@H](CO)NC(=O)[C@@H](NC(=O)[C@H](Cc1ccccc1)NC(=O)[C@@H](NC(=O)CNC(=O)[C@H](CCC(N)=O)NC(=O)C(C)(C)NC(=O)[C@@H](N)Cc1c[nH]cn1)[C@@H](C)O)[C@@H](C)O)C(=O)N[C@@H](CO)C(=O)N[C@@H](CCCCN)C(=O)N[C@@H](Cc1ccc(O)cc1)C(=O)N[C@@H](CC(C)C)C(=O)N[C@@H](CC(=O)O)C(=O)N[C@@H](CCC(=O)O)C(=O)N[C@@H](CCCNC(=N)N)C(=O)N[C@@H](C)C(=O)N[C@@H](C)C(=O)N[C@@H](CCC(N)=O)C(=O)N[C@@H](CC(=O)O)C(=O)N[C@@H](Cc1ccccc1)C(=O)N[C@H](C(=O)N[C@@H](CCC(N)=O)C(=O)N[C@@H](Cc1c[nH]c2ccccc12)C(=O)N[C@@H](CC(C)C)C(=O)N[C@@H](CC(C)C)C(=O)N[C@@H](CC(=O)O)C(=O)N[C@H](C(=O)NCC(=O)N1CCC[C@H]1C(=O)N[C@@H](CO)C(=O)N[C@@H](CO)C(=O)NCC(=O)N[C@@H](C)C(=O)N1CCC[C@H]1C(=O)N1CCC[C@H]1C(=O)N1CCC[C@H]1C(=O)N[C@@H](CO)C(N)=O)C(C)C)C(C)C)C(=O)O` [compound 63] (H-H[Aib]QGTFTSDK([γGlu-Palmitoyl])SKYLDERAAQDFVQWLLDVGPSSGAPPPS-NH2; N-terminus assumed): the figures for the pEC50 on glucagon receptor (setting [2]), at GLP-1 receptor (setting [2]) and at GIP receptor (setting [2]) were 11.40, 11.52 and 10.26, respectively.
